Data reported in patent publication US12378224B2 (Dong-A Socio Holdings Co., Ltd., priority 2016, dated 2025).

Molecular target: human MER (528-end) (Homo sapiens (Human), UniProt Q12866)
Experiment: HTRF Kinase Activity Biochemical Assay (KinEASE-TK)
Conditions: 10 uM ATP
Outline: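 Activity read-out is the HTRF ratio (665 nm over 620 nm emission, ×10,000; excitation 340 nm) after 1 h detection with 0.375 nM Eu3+-cryptate anti-TK antibody plus 0.062 uM SA-XL665. Preceding kinase step: human MER (528-end), biotinylated TK substrate, 1 h, room temperature.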

Sequence of human MER (528-end) (Q12866 528-999 limits assumed): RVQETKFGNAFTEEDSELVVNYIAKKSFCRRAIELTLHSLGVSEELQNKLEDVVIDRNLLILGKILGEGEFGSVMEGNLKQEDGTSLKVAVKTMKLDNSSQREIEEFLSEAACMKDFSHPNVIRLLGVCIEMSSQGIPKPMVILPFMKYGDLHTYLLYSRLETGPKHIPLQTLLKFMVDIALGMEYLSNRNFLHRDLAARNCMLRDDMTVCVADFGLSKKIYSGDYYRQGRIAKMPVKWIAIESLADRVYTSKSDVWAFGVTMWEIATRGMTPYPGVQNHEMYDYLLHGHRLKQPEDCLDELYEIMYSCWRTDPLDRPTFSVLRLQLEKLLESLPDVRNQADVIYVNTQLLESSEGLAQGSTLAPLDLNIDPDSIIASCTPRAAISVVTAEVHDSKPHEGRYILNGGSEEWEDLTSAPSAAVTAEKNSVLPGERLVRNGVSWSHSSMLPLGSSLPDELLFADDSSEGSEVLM

SMILES	IC50
CN1CCN(Cc2cccc(-c3cccc(CN4CC[C@@H](NC(=O)c5cc(-c6cnn(C)c6)cnc5N)C4)c3)c2)CC1 [Example 245, (R)-2-amino-5-(1-methyl-1H-pyrazol-4-yl)-N-(1-((3′-((4-methylpiperazin-1-yl)methyl)-[1,1′-biphenyl]-3-yl)methyl)pyrrolidin-3-yl)nicotinamide]	> 1 µM
CN1CCN(Cc2ccc(-c3cccc(CN4CC[C@@H](NC(=O)c5cc(-c6cnn(C)c6)cnc5N)C4)c3)cc2)CC1 [Example 246, (R)-2-amino-5-(1-methyl-1H-pyrazol-4-yl)-N-(1-((4′-((4-methylpiperazin-1-yl)methyl)-[1,1′-biphenyl]-3-yl)methyl)pyrrolidin-3-yl)nicotinamide]	> 1 µM
Cn1cc(-c2cnc(N)c(C(=O)N[C@@H]3CCN(C(=O)Nc4cccc(-c5cnn(C6CCNCC6)c5)c4)C3)c2)cn1 [Example 260, (R)-2-amino-5-(1-methyl-1H-pyrazol-4-yl)-N-(1-((3-(1-(piperidin-4-yl)-1H-pyrazol-4-yl)phenyl)carbamoyl)pyrrolidin-3-yl)nicotinamide]	> 1 µM
CN1CCN(Cc2cccc(-c3cccc(NC(=O)N4CC[C@@H](NC(=O)c5cc(-c6cnn(C)c6)cnc5N)C4)c3)c2)CC1 [Example 267, (R)-2-amino-5-(1-methyl-1H-pyrazol-4-yl)-N-(1-((3′-((4-methylpiperazin-1-yl)methyl)-[1,1′-biphenyl]-3-yl)carbamoyl)pyrrolidin-3-yl)nicotinamide]	> 1 µM
Cn1cc(-c2cnc(N)c(C(=O)N[C@@H]3CCN(C(=O)Nc4ccc(-c5ccc(CN)cc5)cc4)C3)c2)cn1 [Example 270, (R)-2-amino-N-(1-((4′-(aminomethyl)-[1,1′-biphenyl]-4-yl)carbamoyl)pyrrolidin-3-yl)-5-(1-methyl-1H-pyrazol-4-yl)nicotinamide]	> 1 µM
CN1CCN(Cc2ccc(-c3cccc(OC(=O)N4CC[C@@H](NC(=O)c5cc(-c6cnn(C)c6)cnc5N)C4)c3)cc2)CC1 [Example 275, 4′-((4-methylpiperazin-1-yl)methyl)-[1,1′-biphenyl]-3-yl (R)-3-(2-amino-5-(1-methyl-1H-pyrazol-4-yl)nicotinamido)pyrrolidine-1-carboxylate]	0.1 to 1 µM
Cn1cc(-c2cnc(N)c(C(=O)N[C@@H]3CCN(C(=O)Oc4cccc(-c5ccc(C(=O)O)cc5)c4)C3)c2)cn1 [Example 278, (R)-3′-((3-(2-amino-5-(1-methyl-1H-pyrazol-4-yl)nicotinamido)pyrrolidine-1-carbonyl)oxy)-[1,1′-biphenyl]-4-carboxylic acid]	> 1 µM
Cn1cc(-c2cnc(N)c(C(=O)N[C@@H]3CCN(C(=O)Oc4cccc(-c5ccc(CO)cc5)c4)C3)c2)cn1 [Example 280, 4′-(hydroxymethyl)-[1,1′-biphenyl]-3-yl (R)-3-(2-amino-5-(1-methyl-1H-pyrazol-4-yl)nicotinamido)pyrrolidine-1-carboxylate]	0.1 to 1 µM
Cn1cc(-c2cnc(N)c(C(=O)N[C@@H]3CCN(C(=O)Oc4cccc(-c5cnn(CCO)c5)c4)C3)c2)cn1 [Example 284, 3-(1-(2-hydroxyethyl)-1H-pyrazol-4-yl)phenyl (R)-3-(2-amino-5-(1-methyl-1H-pyrazol-4-yl)nicotinamido)pyrrolidine-1-carboxylate]	> 1 µM
Cn1cc(-c2cnc(N)c(C(=O)N[C@@H]3CCN(C(=O)Oc4cccc(-c5cnn(CCN6CCOCC6)c5)c4)C3)c2)cn1 [Example 287, 3-(1-(2-morpholinoethyl)-1H-pyrazol-4-yl)phenyl (R)-3-(2-amino-5-(1-methyl-1H-pyrazol-4-yl)nicotinamido)pyrrolidine-1-carboxylate]	> 1 µM
CN1CCN(CCn2cc(-c3cccc(OC(=O)N4CC[C@@H](NC(=O)c5cc(-c6cnn(C)c6)cnc5N)C4)c3)cn2)CC1 [Example 288, 3-(1-(2-(4-methylpiperazin-1-yl)ethyl)-1H-pyrazol-4-yl)phenyl (R)-3-(2-amino-5-(1-methyl-1H-pyrazol-4-yl)nicotinamido)pyrrolidine-1-carboxylate]	> 1 µM
CN1CCN(c2cc(-c3cccc(OC(=O)N4CC[C@@H](NC(=O)c5cc(-c6cnn(C)c6)cnc5N)C4)c3)ccn2)CC1 [Example 290, 3-(2-(4-methylpiperazin-1-yl)pyridin-4-yl)phenyl (R)-3-(2-amino-5-(1-methyl-1H-pyrazol-4-yl)nicotinamido)pyrrolidine-1-carboxylate]	> 1 µM

Further lines, results first:

IC50	SMILES
0.1 to 1 µM	Cn1cc(-c2cnc(N)c(C(=O)N[C@@H]3CCN(Cc4ccc(F)c(-c5cccc(CO)c5)c4)C3)c2)cn1 [Example 250, (R)-2-amino-N-(1-((6-fluoro-3′-(hydroxymethyl)-[1,1′-biphenyl]-3-yl)methyl)pyrrolidin-3-yl)-5-(1-methyl-1H-pyrazol-4-yl)nicotinamide]
0.01 to 0.1 µM	Cn1cc(-c2cnc(N)c(C(=O)N[C@@H]3CCN(C(=O)Nc4cccc(-c5cccc(CN)c5)c4)C3)c2)cn1 [Example 254, (R)-2-amino-N-(1-((3′-(aminomethyl)-[1,1′-biphenyl]-3-yl)carbamoyl)pyrrolidin-3-yl)-5-(1-methyl-1H-pyrazol-4-yl)nicotinamide]
0.1 to 1 µM	Cn1cc(-c2cnc(N)c(C(=O)N[C@@H]3CCN(C(=O)Nc4cccc(-c5ccc(CN)cc5)c4)C3)c2)cn1 [Example 255, (R)-2-amino-N-(1-((4′-(aminomethyl)-[1,1′-biphenyl]-3-yl)carbamoyl)pyrrolidin-3-yl)-5-(1-methyl-1H-pyrazol-4-yl)nicotinamide]
0.1 to 1 µM	Nc1ncc(-c2ccc(CO)cc2)cc1C(=O)N[C@@H]1CCN(C(=O)Nc2cccc(-c3ccccc3)c2)C1 [Example 256, (R)—N-(1-([1,1′-biphenyl]-3-ylcarbamoyl)pyrrolidin-3-yl)-2-amino-5-(4-(hydroxymethyl)phenyl)nicotinamide]
0.1 to 1 µM	Cn1cc(-c2cnc(N)c(C(=O)N[C@@H]3CCN(C(=O)Nc4cccc(-c5cccc(N)c5)c4)C3)c2)cn1 [Example 257, (R)-2-amino-N-(1-((3′-amino-[1,1′-biphenyl]-3-yl)carbamoyl)pyrrolidin-3-yl)-5-(1-methyl-1H-pyrazol-4-yl)nicotinamide]
0.1 to 1 µM	Cn1cc(-c2cnc(N)c(C(=O)N[C@@H]3CCN(C(=O)Nc4cccc(-c5ccc(N)cc5)c4)C3)c2)cn1 [Example 258, (R)-2-amino-N-(1-((4′-amino-[1,1′-biphenyl]-3-yl)carbamoyl)pyrrolidin-3-yl)-5-(1-methyl-1H-pyrazol-4-yl)nicotinamide]
0.1 to 1 µM	Cn1cc(-c2cnc(N)c(C(=O)N[C@@H]3CCN(C(=O)Nc4cccc(-c5ccc(CO)cc5)c4)C3)c2)cn1 [Example 259, (R)-2-amino-N-(1-((4′-(hydroxymethyl)-[1,1′-biphenyl]-3-yl)carbamoyl)pyrrolidin-3-yl)-5-(1-methyl-1H-pyrazol-4-yl)nicotinamide]
0.1 to 1 µM	Cn1cc(-c2cnc(N)c(C(=O)N[C@@H]3CCN(C(=O)Nc4cccc(-c5ccc(N6CCNCC6)nc5)c4)C3)c2)cn1 [Example 261, (R)-2-amino-5-(1-methyl-1H-pyrazol-4-yl)-N-(1-((3-(6-(piperazin-1-yl)pyridin-3-yl)phenyl)carbamoyl)pyrrolidin-3-yl)nicotinamide]
0.1 to 1 µM	CNc1ccc(-c2cccc(NC(=O)N3CC[C@@H](NC(=O)c4cc(-c5cnn(C)c5)cnc4N)C3)c2)cc1 [Example 262, (R)-2-amino-5-(1-methyl-1H-pyrazol-4-yl)-N-(1-((4′-(methylamino)-[1,1′-biphenyl]-3-yl)carbamoyl)pyrrolidin-3-yl)nicotinamide]
0.1 to 1 µM	Cn1cc(-c2cnc(N)c(C(=O)N[C@@H]3CCN(C(=O)Nc4cccc(-c5cccc(CO)c5)c4)C3)c2)cn1 [Example 264, (R)-2-amino-N-(1-((3′-(hydroxymethyl)-[1,1′-biphenyl]-3-yl)carbamoyl)pyrrolidin-3-yl)-5-(1-methyl-1H-pyrazol-4-yl)nicotinamide]
0.01 to 0.1 µM	CN(C)Cc1cccc(-c2cccc(NC(=O)N3CC[C@@H](NC(=O)c4cc(-c5cnn(C)c5)cnc4N)C3)c2)c1 [Example 265, (R)-2-amino-N-(1-((3′-((dimethylamino)methyl)-[1,1′-biphenyl]-3-yl)carbamoyl)pyrrolidin-3-yl)-5-(1-methyl-1H-pyrazol-4-yl)nicotinamide]
0.01 to 0.1 µM	CN1CCN(Cc2ccc(-c3cccc(NC(=O)N4CC[C@@H](NC(=O)c5cc(-c6cnn(C)c6)cnc5N)C4)c3)cc2)CC1 [Example 268, (R)-2-amino-5-(1-methyl-1H-pyrazol-4-yl)-N-(1-((4′-((4-methylpiperazin-1-yl)methyl)-[1,1′-biphenyl]-3-yl)carbamoyl)pyrrolidin-3-yl)nicotinamide]
0.1 to 1 µM	Cn1cc(-c2cnc(N)c(C(=O)N[C@@H]3CCN(C(=O)Nc4ccc(-c5ccccc5)cc4)C3)c2)cn1 [Example 271, (R)—N -(1-([1,1′-biphenyl]-4-ylcarbamoyl)pyrrolidin-3-yl)-2-amino-5-(1-methyl-1H-pyrazol-4-yl)nicotinamide]
0.01 to 0.1 µM	CN1CCN(Cc2ccc(-c3cccc(NC(=S)N4CC[C@@H](NC(=O)c5cc(-c6cnn(C)c6)cnc5N)C4)c3)cc2)CC1 [Example 274, (R)-2-amino-5-(1-methyl-1H-pyrazol-4-yl)-N-(1-((4′-((4-methylpiperazin-1-yl)methyl)-[1,1′-biphenyl]-3-yl)carbamothioyl)pyrrolidin-3-yl)nicotinamide]
0.1 to 1 µM	Cn1cc(-c2cnc(N)c(C(=O)N[C@@H]3CCN(C(=O)Oc4cccc(-c5ccc(O)cc5)c4)C3)c2)cn1 [Example 279, 4′-hydroxy-[1,1′-biphenyl]-3-yl (R)-3-(2-amino-5-(1-methyl-1H-pyrazol-4-yl)nicotinamido)pyrrolidine-1-carboxylate]
0.01 to 0.1 µM	Cn1cc(-c2cnc(N)c(C(=O)N[C@@H]3CCN(C(=O)Oc4cccc(-c5cncc6ccccc56)c4)C3)c2)cn1 [Example 289, 3-(isoquinolin-4-yl)phenyl (R)-3-(2-amino-5-(1-methyl-1H-pyrazol-4-yl)nicotinamido)pyrrolidine-1-carboxylate]
